Laboratory results as given in US20230159889A1, “USE OF N-BUTYLIDENEPHTHALIDE IN DOPAMINERGIC PROGENITOR CELL TRANSPLANTATION” (GWO XI STEM CELL APPLIED TECHNOLOGY CO., LTD., priority 2018, published 2023).

What was measured:
[1] = system: dopaminergic progenitor cells; assay: Influence of BP on differentiation of dopaminergic progenitor cells into dopaminergic neurons (cell morphology, inverted microscope); assay type: cell-based; settings: FIG. 3
Description: (§1) The dopaminergic progenitor cells provided by [Preparation Example B-2] were cultured in the conditional medium provided by [Preparation Example A-2] at 37° C., 5% CO2 for 24 hours. Then, the cells were divided into six groups (see FIGS. 3 and 4), three groups (see FIGS. 5 and 6) and independently subjected to the following treatments: • (1) Control group: cells were continuously cultured in the conditional medium provided by [Preparation Example A-2] […]
To understand the influence of BP on the differentiation of dopaminergic progenitor cells into dopaminergic neurons, the differentiation process of the cells in control group provided by [Preparation Example C] was continuously taken from a JuLI™Br cell imaging analyzer (purchased from NanoEnTek company) (results are shown in FIG. 2), and the cell morphology in each group provided by [Preparation Example C] was taken from and recorded by an inverted microscope (purchased from Nikon company) when the cells were continuously cultured for six days (results are shown in FIG. 3).

dopaminergic neurons = assay: Influence of BP on migration of dopaminergic neurons out from neurospheres (Sox-1/TH/DAPI fluorescent staining); assay type: cell-based; settings: FIG. 4
Description: as §1
To understand the influence of BP on dopaminergic neurons, when the cells in each group provided by [Preparation Example C] were continuously cultured for ten days, the cells were fixed and then subjected to fluorescent staining with the antibodies including Sox-1 (purchased from Santa Cruz company, product number: SC-17318), TH (tyrosine hydroxylase; purchased from Millipore company, product number: MAB152) and DAPI (diamidino-2-phenylindole; purchased from ThermoFisher Scientific company, product number: D1306), respectively (Sox-1 expresses in dopaminergic progenitor cells, TH expresses in dopaminergic neurons, and DAPI is a nuclear-specific dye). Then, the dopaminergic progenitor cells (green fluorescence), dopaminergic neurons (red fluorescence) and nuclei (blue fluorescence) were observed by an upright fluorescent microscope (purchased from Nikon Company).

SMILES: CCCC=C1OC(=O)c2ccccc21 [BP, n-butylidenephthalide]
- influence on the normal neural differentiation of dopaminergic progenitor cells ([1]; BP 5-100 µM, six days): does not influence
- formation of nerve fibers ([1]; BP at 5, 10, 20, 50 and 100 µM in conditional medium (Purmorphamine + FGF-8b), cultured six days): can be observed
- phenomenon of dopaminergic neurons migrating out from the neurospheres, comparison among BP concentrations (dopaminergic neurons; BP 50 µM ("BP (50)" group), ten days): most significant
- phenomenon of dopaminergic neurons migrating out from the neurospheres, compared to control group (dopaminergic neurons; BP at 5, 10, 20, 50 and 100 µM in conditional medium, cultured ten days): can be observed
